Experimental data taken from patent US10441562B2, “Aromatic farnesyl compound and application thereof” (INSTITUTE OF MICROBIOLOGY, CHINESE ACADEMY OF SCIENCES, priority 2015, dated 2019).

Assays:
[1] = body weight of hyperglycemia KK-A^y mice; format: in vivo
Description: Materials: accurately weigh the 2 compounds S13 and S28 discussed in example 2, and then add 0.5% CMC-Na to make the solution of 5 mg/ml used for activity test. KK-A^y mice are purchased from Chinese Academy of Medical Sciences & Peking Union Medical College Institute of Animal Studies. Experiments are carried out after adapting to the environment (T=20-24° C., constant humidity: 50-60%, 12 hours light exposure (8:00-20:00), soundproof, free feeding and drinking) for 1 week. Glucometer is purchased from Roche.
Methods: 10 male C57 mice of 6-8 weeks of 20-22 g are used as normal control group (1). Detect the fasting glucose of male KK-A^y mice, which are 6-8 weeks with the weight of 28-32 g, and divide them into different groups according to the blood sugar level and body weight: (2) model control group, (3) which is administered by compound S13 with the dose of 1 mg/kg, (4) which is administered by compound S13 with the dose of 5 mg/kg, (5) which is administered by compound S13 with the dose of 10 mg/kg, (6) which is administered by compound S13 with the dose of 20 mg/kg, (7) which is administered by compound S28 with the dose of 1 mg/kg, (8) which is administered by compound S28 with the dose of 5 mg/kg, (9) which is administered by compound S28 with the dose of 10 mg/kg, (10) which is administered by compound S28 with the dose of 20 mg/kg, (11) which is administered by metformin with the dose of 8 g/kg, (12) which is administered by compound S13 with the dose of 2.5 mg/kg and metformin with the dose of 4 g/kg, (13) which is administered by compound S13 with the dose of 5 mg/kg and metformin with the dose of 4 g/kg, (14) which is administered by compound S28 with the dose of 2.5 mg/kg and metformin with the dose of […], (15) which is administered by compound S28 with the dose of 5 mg/kg and metformin with the dose of […]. Each group has 8 mice, and is administrated successively for 3 weeks. Model control group is given with equal amounts of 0.5% CMC-Na.
2) Effects on body weight and blood sugar: the body weight of mice are recorded at the 2th, 5th, 8th, 11th, 14th, 17th, 20th day after administration, and blood is collected from tip of tail to detect the blood sugar level (see table 10).

[2] = system: Wister rats fed with choline deficient diet; experiment: hepatic tissue section of non-alcohol fatty liver rats (HE); format: in vivo; conditions: FIG. 2, 10 and 20 mg/kg
Description: Methods: male SPF level Wister rats are randomly divided into groups: (1) normal group (2) model control group (3) which is administered by compound S13 with the dose of 10 mg/kg (4) which is administered by compound S13 with the dose of 20 mg/kg (5) which is administered by compound S28 with the dose of 10 mg/kg […] which is administered by compound S28 with the dose of 20 mg/kg. Each group has 10 mice. The mice of normal group are fed with standard diet, the mice of other groups are fed with choline deficient diet (high-fat diet). Food intake and body weight are detected. Feeding with choline deficient diet are considered as a frequently-used hepatic adipose infiltration modeling method of rodent, which can induce the denaturation of hepatocyte, hepatitis and liver injury, at the same time the increase of blood lipid level can induce the insulin resistance.
After being fed with high-fat diet for 8 weeks, the mice of treated group are given drugs for 4 weeks successively. Model group and normal group are given with equal amounts of 0.5% CMC-Na. After administration of medicine for 4 weeks, the rats are executed under anesthesia, and then hepatic tissue and blood are collected.
4) Hepatic tissue section: after the last administration, the rats are executed under anesthesia. Collect the liver on the ice, then quickly fix the liver into formalin and prepare the tissue sections.

[3] = acute toxicity test of mice; conditions: Kunming, mouse, in vivo, po, 5 g/kg
Description: (§1) Materials: 20 Kunming species mice of 6-8 weeks of 20-22 g are purchased from Beijing Vital River Laboratory Animal Technology Co., Ltd.,
(§2) Accurately weigh the 2 compounds S13 and S28, and then add 0.5% CMC-Na to make the solution of 0.2 g/ml.
(§3) After being acclimatized for 3-5 days, the mice are fasted at 18:00 in the day before the experiment, free drinking. The mice are randomly divided into groups of 10 animals in each and given with medicine by intragastric administration, and 0.25 ml of drugs is given to every 10 g weight of mice, i.e. dose 5 g/kg. Mice of control group are given with 0.5% CMC-Na by intragastric administration, and 0.25 ml of solution are given to every 10 g weight of mice.
(§4) After administration, observe the general status of mice, such as appearance, behavior, response to stimulus, secretion and excretion, and record the time when abnormal phenomena happen. If death occurred, record time and observe the abnormal phenomena by autopsy.

Kunming species mice = experiment: acute toxicity test of mice
Description: as §1, §2, §3, §4

[4] = 2st day, 20 mg/kg, groups 6, 10
[5] = 5st day, 20 mg/kg, groups 6, 10
[6] = 8st day, 20 mg/kg, groups 6, 10
[7] = 11st day, 10 mg/kg, groups 5, 9
[8] = 11st day, 20 mg/kg, groups 6, 10
[9] = 14st day, 10 mg/kg, groups 5, 9
[10] = 14st day, 20 mg/kg, groups 6, 10
[11] = 17st day, 10 mg/kg, groups 5, 9
[12] = 17st day, 20 mg/kg, groups 6, 10
[13] = 20st day, 10 mg/kg, groups 5, 9
[14] = 20st day, 20 mg/kg, groups 6, 10

Compound: CC(C)=CCC/C(C)=C/CCC1=C[C@@H](c2cc(O)ccc2O)OC1=O [S28, (S,E)-5-(2,5-dihydroxyphenyl)-3-(4,8-dimethylnona-3,7-dien-1-yl)furan-2(5H)-one]
- effect on body weight (in words) [1]: litter effect on body weight
- Body weight ([1]; 2st day, 1 mg/kg, groups 3, 7): 30.1 g
- Body weight ([1]; 2st day, 5 mg/kg, groups 4, 8): 30.3 g
- Body weight ([1]; 2st day, 10 mg/kg, groups 5, 9): 30.3 g
- Body weight [1, 4]: 30.4 g
- Body weight ([1]; 5st day, 1 mg/kg, groups 3, 7): 30.23 g
- Body weight ([1]; 5st day, 5 mg/kg, groups 4, 8): 30.43 g
- Body weight ([1]; 5st day, 10 mg/kg, groups 5, 9): 30.51 g
- Body weight [1, 5]: 30.36 g
- Body weight ([1]; 8st day, 1 mg/kg, groups 3, 7): 30.6 g
- Body weight ([1]; 8st day, 5 mg/kg, groups 4, 8): 30.8 g
- Body weight ([1]; 8st day, 10 mg/kg, groups 5, 9): 30.4 g
- Body weight [1, 6]: 30.2 g
- Body weight ([1]; 11st day, 1 mg/kg, groups 3, 7): 30.8 g
- Body weight ([1]; 11st day, 5 mg/kg, groups 4, 8): 31.3 g
- Body weight [1, 7]: 31.4 g
- Body weight [1, 8]: 30.5 g
- Body weight ([1]; 14st day, 1 mg/kg, groups 3, 7): 31.25 g
- Body weight ([1]; 14st day, 5 mg/kg, groups 4, 8): 31.76 g
- Body weight [1, 9]: 32.56 g
- Body weight [1, 10]: 30.4 g
- Body weight ([1]; 17st day, 1 mg/kg, groups 3, 7): 31.4 g
- Body weight ([1]; 17st day, 5 mg/kg, groups 4, 8): 31.5 g
- Body weight [1, 11]: 32.6 g
- Body weight [1, 12]: 30.7 g
- Body weight ([1]; 20st day, 1 mg/kg, groups 3, 7): 32.1 g
- Body weight ([1]; 20st day, 5 mg/kg, groups 4, 8): 31.3 g
- Body weight [1, 13]: 32.2 g
- Body weight [1, 14]: 30.2 g
- fat vacuole in hepatocyte (liver tissue section, HE) [2]: almost disappear
- LD50 [3]: > 5000 mg/kg
- abnormal phenomena by autopsy (Kunming species mice; mouse, in vivo): no obvious abnormal phenomena are found by autopsy
- body weight of mice after administration (Kunming species mice; mouse, in vivo): drop slightly

Compound: CC(C)=CCC/C(C)=C/CCC1=C[C@H](c2cc(O)ccc2O)OC1=O [S13, (R,E)-5-(2,5-dihydroxyphenyl)-3-(4,8-dimethylnona-3,7-dien-1-yl)furan-2(5H)-one]
- effect on body weight (in words) [1]: litter effect on body weight
- Body weight ([1]; 2st day, 1 mg/kg, groups 3, 7): 30.6 g
- Body weight ([1]; 2st day, 5 mg/kg, groups 4, 8): 30.7 g
- Body weight ([1]; 2st day, 10 mg/kg, groups 5, 9): 30.3 g
- Body weight [1, 4]: 30.5 g
- Body weight ([1]; 5st day, 1 mg/kg, groups 3, 7): 30.8 g
- Body weight ([1]; 5st day, 5 mg/kg, groups 4, 8): 30.8 g
- Body weight ([1]; 5st day, 10 mg/kg, groups 5, 9): 30.2 g
- Body weight [1, 5]: 30.3 g
- Body weight ([1]; 8st day, 1 mg/kg, groups 3, 7): 30.5 g
- Body weight ([1]; 8st day, 5 mg/kg, groups 4, 8): 30.9 g
- Body weight ([1]; 8st day, 10 mg/kg, groups 5, 9): 30.3 g
- Body weight [1, 6]: 30.2 g
- Body weight ([1]; 11st day, 1 mg/kg, groups 3, 7): 30.5 g
- Body weight ([1]; 11st day, 5 mg/kg, groups 4, 8): 31.2 g
- Body weight [1, 7]: 31.5 g
- Body weight [1, 8]: 30.1 g
- Body weight ([1]; 14st day, 1 mg/kg, groups 3, 7): 31.2 g
- Body weight ([1]; 14st day, 5 mg/kg, groups 4, 8): 31.5 g
- Body weight [1, 9]: 32.5 g
- Body weight [1, 10]: 30.4 g
- Body weight ([1]; 17st day, 1 mg/kg, groups 3, 7): 31.8 g
- Body weight ([1]; 17st day, 5 mg/kg, groups 4, 8): 31.5 g
- Body weight [1, 11]: 32.1 g
- Body weight [1, 12]: 30 g
- Body weight ([1]; 20st day, 1 mg/kg, groups 3, 7): 32.1 g
- Body weight ([1]; 20st day, 5 mg/kg, groups 4, 8): 31.6 g
- Body weight [1, 13]: 32.5 g
- Body weight [1, 14]: 30.1 g
- fat vacuole in hepatocyte (liver tissue section, HE) [2]: almost disappear
- LD50 [3]: > 5000 mg/kg
- abnormal phenomena by autopsy (Kunming species mice; mice, intragastric administration, dose 5 g/kg): no obvious abnormal phenomena are found by autopsy
